Numbering of substitutions follows the chain as printed.
T1: human LXRβ LBD (Homo sapiens, UniProt P55055, Y334W)
T1 construct: LXRβ (amino acids 155-462); expressed in transfected cells; host or cells: CV-1 cells
T1 sequence (P55055 155-460 Y334W): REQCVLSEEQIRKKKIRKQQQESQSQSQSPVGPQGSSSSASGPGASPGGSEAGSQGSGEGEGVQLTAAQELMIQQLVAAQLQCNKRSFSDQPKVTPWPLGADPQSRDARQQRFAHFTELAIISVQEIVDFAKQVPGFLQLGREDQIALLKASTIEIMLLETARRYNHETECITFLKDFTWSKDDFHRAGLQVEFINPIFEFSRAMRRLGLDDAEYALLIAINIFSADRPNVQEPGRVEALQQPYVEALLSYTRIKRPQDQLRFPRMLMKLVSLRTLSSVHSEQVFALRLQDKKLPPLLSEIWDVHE

T2: human LXRβ LBD (Homo sapiens, UniProt P55055, H434A)
T2 construct: LXRβ (amino acids 155-462); expressed in transfected cells; host or cells: CV-1 cells
T2 sequence (P55055 155-460 H434A): T1 sequence (P55055 155-460 Y334W) with W180Y, H280A

T3: human LXRα LBD (Homo sapiens, UniProt Q13133, H421A)
T3 construct: LXRα (amino acids 164-447); expressed in transfected cells; host or cells: CV-1 cells
T3 sequence (Q13133 164-447 H421A): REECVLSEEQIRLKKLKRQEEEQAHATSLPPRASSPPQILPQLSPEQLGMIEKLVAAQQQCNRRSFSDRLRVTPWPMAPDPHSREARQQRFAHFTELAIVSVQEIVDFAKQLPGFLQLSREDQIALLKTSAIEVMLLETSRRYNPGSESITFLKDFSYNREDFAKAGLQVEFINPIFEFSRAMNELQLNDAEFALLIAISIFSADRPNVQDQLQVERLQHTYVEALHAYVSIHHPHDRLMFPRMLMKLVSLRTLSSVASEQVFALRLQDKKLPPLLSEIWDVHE

B1: human LXRβ LBD (ligand binding domain) containing amino acids 214-462 (receptor)
chain: GSEGEGVQLTAAQELMIQQLVAAQLQCNKRSFSDQPKVTPWPLGADPQSRDARQQRFAHFTELAIISVQEIVDFAKQVPGFLQLGREDQIALLKASTIEIMLLETARRYNHETECITFLKDFTYSKDDFHRAGLQVEFINPIFEFSRAMRRLGLDDAEYALLIAINIFSADRPNVQEPGRVEALQQPYVEALLSYTRIKRPQDQLRFPRMLMKLVSLRTLSSVHSEQVFALRLQDKKLPPLLSEIWDVHE
notes: It is entered here as the monomer, so that self-association is the pair m1-m1; also called LXR LBD

Experiments:
[1] = target: T1, human LXRβ LBD; assay: Gal4-LXRβ LBD (wild type and mutant) transactivation, SPAP reporter, transient transfection in CV-1 cells; assay type: cell-based; conditions: LXRβ Y335W mutant LBD, compound 10 μM, 18 hours
Method: (§1) FIG. 7B is a bar graph depicting the effect of mutating LXR LBD pocket residues on transcriptional activity, which was determined by measuring the amount of SPAP synthesized in CV-1 cells by a transiently transfected Gal4 fusion of LXRβ LBD.
(§2) To explore these differences, site directed mutants were made targeting specific pocket residues that interacted more directly with one compound than the other. […] However, the gauche conformation of I317 extended into a pocket near the beta turn. […] By contrast, O3 of EPC extended into a hydrophilic pocket (see FIG. 6B) which includes residues E281 (E267α), E315 (E301α), and R319 (R305α). Mutations in this region permit identification of the necessary polar interactions for EPC binding. The transactivation capability of gal4-fusions of wild-type and mutant LXRα and LXRβ LBDs were measured by their ability to transcribe secreted placental alkaline phosphatase (SPAP) on a UAS-tk promoter in transient transfection experiments in CV-1 cells. See Laboratory Example 4. […]
(§3) Wild type and mutant LXR transactivation activity was measured in CV-1 cells. […]
(§4) Alkaline phosphatase activity was assayed by adding 200 μl substrate (7 mM p-nitrophenyl phosphate in 1 M diethanolamine/0.28 M sodium chloride/0.5 mM magnesium chloride, pH 9.85) to each well of the plates, incubating at room temperature, and reading absorbance at 405 nm. […]

[2] = target: T2, human LXRβ LBD; assay: as above; assay type: cell-based; conditions: LXRβ H435A mutant LBD, compound 10 μM, 18 hours
Method: as §1, §2, §3, §4

[3] = tested on: LXR; assay: LXR activation (general statements, literature)
[4] = tested on: LXR; conditions: both LXR subtypes; compared with the natural ligands; cited from earlier work
[5] = tested on: LXR; assay: Ligand binding to LXR
[6] = target: T3, human LXRα LBD; assay: Gal4-LXRα LBD (wild type and mutant) transactivation, SPAP reporter, transient transfection in CV-1 cells; assay type: cell-based; conditions: compound 10 μM, 18 hours
Method: FIG. 7A is a bar graph depicting the effect of mutating LXR LBD pocket residues on transcriptional activity, which was determined by measuring the amount of SPAP synthesized in CV-1 cells by a transiently transfected Gal4 fusion of LXRα LBD.
as §2, §3, §4

[7] = tested on: LXR; assay: Co-activator recruitment by LXR; assay type: biochemical
[8] = target: the molecule itself; assay: X-ray crystal structures, homodimer in the asymmetric unit
[9] = target: B1; assay: X-ray co-crystal structure, LXRβ LBD with EPC and SRC1 peptide
Method: Crystallization trials were carried out using the hanging drop method by mixing 2 μl of protein solution with 2 μl of well buffer. Both the LXRβ/ligand complexes crystallized out of 10-12% PEG 3350-8000 with 0.2M salt at 40° C. Usable LXRβ/T0901317 crystals were obtained from a number of salts including NaF, KF, NaCl, KCl, Na formate, Na acetate, and K acetate. The best LXRβ/EPC (24(S), 25-epoxycholesterol) crystals were obtained with ammonium sulfate and lithium sulfate salts. All crystals took 4-6 weeks to grow. Crystals were frozen in LN₂ after transferring stepwise to a cryo buffer containing the well buffer with 30% PEG 400.

Molecule: O=S(=O)(c1ccccc1)N(CC(F)(F)F)c1ccc(C(O)(C(F)(F)F)C(F)(F)F)cc1 [T317, N-(2,2,2-trifluoroethyl)-N-[4-(2,2,2-trifluoro-1-hydroxy-1-trifluoromethyl-ethyl)-phenyl]-benzenesulfonamide]
- transcriptional activity (SPAP) with Y335W mutant [1]: some modulation
- transcriptional activity (SPAP) with H435A mutant [2]: completely knocked out the activity
- efficacy of LXR activation [3]: efficacious
- potency in activating both LXRs [4]: as potent
- binding to LXR [5]: bound tightly
- transcriptional activity (SPAP) with H421A mutant [6]: completely knocked out the activity

Molecule: CC(C)CCC[C@@H](C)[C@H]1CC[C@H]2[C@@H]3CC=C4C[C@@H](O)CC[C@]4(C)[C@H]3CC[C@]12C [cholesterol]
- recruitment of co-activator [7]: do not recruit co-activator
- binding to LXR [5]: do bind to LXR

Molecule: B1
- binding result [8]: binds

Molecule: CPSSHSSLTERHKILHRLLQQGSPS (also called SRC1(2); SRC peptide) [SRC1 peptide (second LXXLL motif of the nuclear receptor co-activator SRC-1)]
- binding result [9]: binds
